Experimental data from PMC5667462, “Benzoylphenyl thiocyanates are new, effective inhibitors of the mycobacterial resuscitation promoting factor B protein” (Annals of Clinical Microbiology and Antimicrobials, 2017).

target: T1, RpfB (catalytic domain, residues 280-362) (Mycobacterium tuberculosis, UniProt P9WG29); assay: release of fluorescent fragments from FITC-labelled peptidoglycan; type: biochemical; settings: read-out: IC50 Rpf-hydrolysis of PG, μM / M. tuberculosis
Excerpt: release of fluorescent fragments from FITC-labelled peptidoglycan on RpfB (catalytic domain, residues 280-362)

T1 sequence (P9WG29 280-362): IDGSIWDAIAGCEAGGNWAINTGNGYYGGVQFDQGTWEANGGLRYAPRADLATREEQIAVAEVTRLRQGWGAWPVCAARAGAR

Row | Compound | IC50
1 | N#CSc1ccc(C(=O)c2ccc(SC#N)cc2)cc1 [V, Bis(4-thiocyanophenyl)methanone] | 4.3 ± 2.4 µM
2 | N#CSc1ccc(C(=O)c2ccccc2)cc1 [III, 4-Benzoylphenyl thiocyanate] | 1.2 ± 0.5 µM
3 | N#CSc1ccc(C(=O)c2ccc(SC#N)c([N+](=O)[O-])c2)cc1[N+](=O)[O-] [IV, Bis(4-thiocyano-3-nitrophenyl)methanone] | 5.8 ± 2 µM
4 | N#CSc1cccc(C(=O)c2ccccc2)c1 [II, 3-Benzoylphenyl thiocyanate] | 1.7 ± 0.4 µM
5 | N#CSc1cccc(C(=O)c2cccc(SC#N)c2)c1 [VI, Bis(3-thiocyanophenyl)methanone] | 3.6 ± 1.2 µM

target: T1, RpfB (catalytic domain, residues 280-362); assay: intrinsic tryptophan fluorescence quenching (Stern-Volmer); type: binding; settings: 50 mM phosphate buffer, pH 6.0; room temperature; RpfB 25.6 μg/ml; excitation 280 nm

Row | Compound | intrinsic tryptophan fluorescence quenching (Stern-Volmer)
6 | N#CSc1ccc(C(=O)c2ccc(SC#N)c([N+](=O)[O-])c2)cc1[N+](=O)[O-] [IV, Bis(4-thiocyano-3-nitrophenyl)methanone] | confirmed by quenching of Rpf’s autofluorescence by the compound (IV)
